Test results from patent US20200138854A1, “Method of Detecting and Quantifying Bile Acid from Saliva” (Ironwood Pharmaceuticals, Inc., priority 2017, published 2020).
Where “and” joins values, the source holds several entries; their conditions need not be identical. Identical values can stand only once. Like-named read-outs stand apart in the source and are kept apart here. Values belong to the compound of their own block, whether it stands above or below them.

Tests used:
[1] = Frozen (−20° C.) short-term stability in cholestyramine-treated human saliva; conditions: for % Bias / Concentration, Mean / Concentration: −20° C.; for Concentration: individual values
Protocol: Quality control samples for the evaluation of accuracy and precision and for run acceptance were prepared on the day of sample extraction. QC samples prepared in cholestyramine-treated saliva are to be prepared in small volumes for analysis. Stability for these QC samples would be limited to short-term storage (i.e., 2 days) whereas untreated human saliva would be evaluated for long-term storage.
For stability in cholestyramine-treated human saliva, samples were prepared by spiking cholestyramine-treated human saliva with each analyte at the QC-LLOQ, QC-Low, QC-Mid and QC-High levels. The samples were stored in a −20° C. freezer. After 1 day and 2 days of storage, each sample was extracted in replicates of four for analysis.

[2] = Long-term (1 month at −20° C. and −80° C.) stability in untreated human saliva; conditions: for Fresh QCs (Batch 34) Mean at Time Zero, QC-High / % Bias QC-High / % CV QC-High / Difference from Fresh (%) QC-High / Mean concentration QC-High / Concentration QC-High: nominal 80.0 ng/mL
Protocol: For long-term stability in untreated human saliva, samples were prepared by spiking untreated human saliva with each analyte at the QC-Low and QC-High levels. The samples were stored in a −20° C. freezer and in a −80° C. freezer. After 1 month of storage, each sample was extracted in replicates of three for analysis.
A 100-μL aliquot of sample (calibration standards, quality controls, blanks, and stability samples) was transferred into a 96 well plate, according to a pre-defined layout. […] The plates were covered, vortex-mixed and then centrifuged for 5 minutes at 3200 rpm. Supernatants (350 μL each) were transferred into the corresponding wells of a clean 96 well plate and evaporated to dryness under nitrogen in a Turbovap set to 40° C. The dried residue in each well was reconstituted with 75 μL of 50:50 (v:v) methanol:water.

[3] = nominal 0.500 ng/mL, 1 Day at −20° C.
[4] = nominal 0.500 ng/mL, 2 Days at −20° C.
[5] = nominal 8.00 ng/mL, 1 Day at −20° C.
[6] = nominal 8.00 ng/mL, 2 Days at −20° C.
[7] = nominal 80.0 ng/mL, 1 Day at −20° C.
[8] = nominal 80.0 ng/mL, 2 Days at −20° C.
[9] = 1 Day at −20° C., nominal 0.500 ng/mL
[10] = 1 Day at −20° C., nominal 8.00 ng/mL
[11] = 1 Day at −20° C., nominal 80.0 ng/mL
[12] = 2 Days at −20° C., nominal 0.500 ng/mL
[13] = 2 Days at −20° C., nominal 8.00 ng/mL
[14] = 2 Days at −20° C., nominal 80.0 ng/mL
[15] = 1 month −20° C. storage, untreated human saliva
[16] = 1 month −20° C. storage, untreated human saliva, run 35
[17] = 1 month −80° C. storage, untreated human saliva
[18] = 1 month −80° C. storage, untreated human saliva, run 35
[19] = reference for −20° C. storage, untreated human saliva
[20] = reference for −80° C. storage, untreated human saliva
[21] = 1 Day, QC-High, nominal 80.0 ng/mL
[22] = 1 Day, QC-LLOQ, nominal 0.500 ng/mL
[23] = 1 Day, QC-Mid, nominal 8.00 ng/mL
[24] = 2 Days, QC-High, nominal 80.0 ng/mL
[25] = 2 Days, QC-LLOQ, nominal 0.500 ng/mL
[26] = 2 Days, QC-Mid, nominal 8.00 ng/mL

Short-term stability in cholestyramine-treated human saliva [1]: up to 2 days
Stability in Treated Human Saliva [1]: 2 days
% Bias QC-LLOQ [1, 3]: 7.1%
% CV QC-LLOQ [1, 3]: 2.2%
Mean concentration QC-LLOQ ([1]; nominal 0.500 ng/mL, 1 Day at −20° C., n 4): 0.535 ng/mL
% Bias QC-LLOQ [1, 4]: 19.6%
% CV QC-LLOQ [1, 4]: 4.1%
Mean concentration QC-LLOQ ([1]; nominal 0.500 ng/mL, 2 Days at −20° C., n 4): 0.598 ng/mL
% Bias QC-Mid [1, 5]: −5.4%
% CV QC-Mid [1, 5]: 0.9%
Mean concentration QC-Mid ([1]; nominal 8.00 ng/mL, 1 Day at −20° C., n 4): 7.57 ng/mL
% Bias QC-Mid [1, 6]: −1.8%
% CV QC-Mid [1, 6]: 4.0%
Mean concentration QC-Mid ([1]; nominal 8.00 ng/mL, 2 Days at −20° C., n 4): 7.85 ng/mL
% Bias QC-High [1, 7]: −3.3%
% CV QC-High [1, 7]: 2.9%
Mean concentration QC-High ([1]; nominal 80.0 ng/mL, 1 Day at −20° C., n 4): 77.3 ng/mL
% Bias QC-High [1, 8]: −3.8%
% CV QC-High [1, 8]: 3.9%
Mean concentration QC-High ([1]; nominal 80.0 ng/mL, 2 Days at −20° C., n 4): 77.0 ng/mL
Fresh QCs (Batch 34) Mean at Time Zero, QC-High ([2]; reference for −20° C. Storage, untreated human saliva): 84.5 ng/mL
Fresh QCs (Batch 34) Mean at Time Zero, QC-High ([2]; reference for −80° C. Storage, untreated human saliva): 84.5 ng/mL
% Bias QC-High ([2]; −20° C. Storage, 1 month): 1.0%
% CV QC-High ([2]; −20° C. Storage, 1 month): 2.5%
Difference from Fresh (%) QC-High ([2]; −20° C. Storage, 1 month): −4.3%
Mean concentration QC-High ([2]; −20° C. Storage, 1 month, n 3): 80.8 ng/mL
Concentration QC-High ([2]; −20° C. Storage, 1 month, untreated human saliva, Run 35, replicate): 79.1 ng/mL and 83.0 ng/mL and 80.4 ng/mL
% Bias QC-High ([2]; −80° C. Storage, 1 month): 1.0%
% CV QC-High ([2]; −80° C. Storage, 1 month): 4.7%
Difference from Fresh (%) QC-High ([2]; −80° C. Storage, 1 month): −4.3%
Mean concentration QC-High ([2]; −80° C. Storage, 1 month, n 3): 80.8 ng/mL
Concentration QC-High ([2]; −80° C. Storage, 1 month, untreated human saliva, Run 35, replicate): 84.4 ng/mL and 81.2 ng/mL and 76.9 ng/mL
SMILES: C[C@H](CCC(=O)NCCS(=O)(=O)O)[C@H]1CC[C@H]2[C@@H]3[C@H](O)C[C@@H]4C[C@H](O)CC[C@]4(C)[C@H]3CC[C@]12C [Taurochenodeoxycholic Acid, Taurochenodeoxycholic acid]
Concentration QC-LLOQ ([1]; nominal 0.500 ng/mL, 1 Day at −20° C., Run 33, cholestyramine-treated human saliva, replicate): 0.529 ng/mL and 0.542 ng/mL and 0.522 ng/mL and 0.548 ng/mL
Concentration QC-LLOQ ([1]; nominal 0.500 ng/mL, 2 Days at −20° C., Run 33, cholestyramine-treated human saliva, replicate): 0.608 ng/mL and 0.589 ng/mL and 0.569 ng/mL and 0.626 ng/mL
Concentration QC-Mid ([1]; nominal 8.00 ng/mL, 1 Day at −20° C., Run 33, cholestyramine-treated human saliva, replicate): 7.59 ng/mL and 7.63 ng/mL and 7.58 ng/mL and 7.47 ng/mL
Concentration QC-Mid ([1]; nominal 8.00 ng/mL, 2 Days at −20° C., Run 33, cholestyramine-treated human saliva, replicate): 7.42 ng/mL and 8.04 ng/mL and 8.12 ng/mL and 7.83 ng/mL
Concentration QC-High ([1]; nominal 80.0 ng/mL, 1 Day at −20° C., Run 33, cholestyramine-treated human saliva, replicate): 78.3 ng/mL and 79.8 ng/mL and 74.6 ng/mL and 76.6 ng/mL
Concentration QC-High ([1]; nominal 80.0 ng/mL, 2 Days at −20° C., Run 33, cholestyramine-treated human saliva, replicate): 74.4 ng/mL and 78.6 ng/mL and 74.5 ng/mL and 80.3 ng/mL

SMILES: C[C@H](CCC(=O)NCCS(=O)(=O)O)[C@H]1CC[C@H]2[C@@H]3[C@H](O)C[C@@H]4C[C@H](O)CC[C@]4(C)[C@H]3C[C@H](O)[C@]12C [Taurocholic Acid, Taurocholic acid]
% Bias QC-LLOQ [1, 9]: −1.1%
% CV QC-LLOQ [1, 9]: 2.4%
Mean concentration QC-LLOQ [1, 9]: 0.495 ng/mL
Concentration QC-LLOQ ([1]; 1 Day at −20° C., nominal 0.500 ng/mL, run 33): 0.481 ng/mL and 0.509 ng/mL and 0.491 ng/mL and 0.498 ng/mL
% Bias QC-Mid [1, 10]: −8.4%
% CV QC-Mid [1, 10]: 1.9%
Mean concentration QC-Mid [1, 10]: 7.33 ng/mL
Concentration QC-Mid ([1]; 1 Day at −20° C., nominal 8.00 ng/mL, run 33): 7.32 ng/mL and 7.29 ng/mL and 7.51 ng/mL and 7.18 ng/mL
% Bias QC-High [1, 11]: −6.6%
% CV QC-High [1, 11]: 2.7%
Mean concentration QC-High [1, 11]: 74.7 ng/mL
Concentration QC-High ([1]; 1 Day at −20° C., nominal 80.0 ng/mL, run 33): 74.9 ng/mL and 77.2 ng/mL and 72.3 ng/mL and 74.5 ng/mL
% Bias QC-LLOQ [1, 12]: 11.2%
% CV QC-LLOQ [1, 12]: 4.1%
Mean concentration QC-LLOQ [1, 12]: 0.556 ng/mL
Concentration QC-LLOQ ([1]; 2 Days at −20° C., nominal 0.500 ng/mL, run 33): 0.538 ng/mL and 0.563 ng/mL and 0.537 ng/mL and 0.585 ng/mL
% Bias QC-Mid [1, 13]: −6.7%
% CV QC-Mid [1, 13]: 4.8%
Mean concentration QC-Mid [1, 13]: 7.46 ng/mL
Concentration QC-Mid ([1]; 2 Days at −20° C., nominal 8.00 ng/mL, run 33): 6.98 ng/mL and 7.47 ng/mL and 7.55 ng/mL and 7.85 ng/mL
% Bias QC-High [1, 14]: −6.7%
% CV QC-High [1, 14]: 2.1%
Mean concentration QC-High [1, 14]: 74.7 ng/mL
Concentration QC-High ([1]; 2 Days at −20° C., nominal 80.0 ng/mL, run 33): 73.1 ng/mL and 75.1 ng/mL and 73.8 ng/mL and 76.6 ng/mL
Short-term stability in cholestyramine-treated human saliva ([1]; at −20° C.): up to 2 days
Stability in Treated Human Saliva ([1]; at −20° C., cholestyramine-treated human saliva): 2 days
% Bias QC-High [2, 15]: −2.9%
% CV QC-High [2, 15]: 3.0%
Difference from Fresh (%) QC-High [2, 15]: −4.5%
Mean concentration QC-High [2, 15]: 77.7 ng/mL
Concentration QC-High [2, 16]: 75.1 ng/mL and 78.3 ng/mL and 79.7 ng/mL
% Bias QC-High [2, 17]: −2.3%
% CV QC-High [2, 17]: 3.7%
Difference from Fresh (%) QC-High [2, 17]: −4.0%
Mean concentration QC-High [2, 17]: 78.1 ng/mL
Concentration QC-High [2, 18]: 81.2 ng/mL and 77.8 ng/mL and 75.4 ng/mL
Fresh QCs (Batch 34) Mean at Time Zero, QC-High [2, 19]: 81.4 ng/mL
Fresh QCs (Batch 34) Mean at Time Zero, QC-High [2, 20]: 81.4 ng/mL

Short-term stability in cholestyramine-treated human saliva ([1]; human): up to 2 days
Stability in Treated Human Saliva ([1]; human): 2 days
% Bias [1, 21]: −1.3%
Concentration, Mean [1, 21]: 79.0 ng/mL
% Bias [1, 22]: 10.3%
Concentration, Mean [1, 22]: 0.551 ng/mL
% Bias [1, 23]: −2.5%
Concentration, Mean [1, 23]: 7.80 ng/mL
% Bias [1, 24]: −4.4%
Concentration, Mean [1, 24]: 76.5 ng/mL
% Bias [1, 25]: 17.2%
Concentration, Mean [1, 25]: 0.586 ng/mL
% Bias [1, 26]: −2.9%
Concentration, Mean [1, 26]: 7.77 ng/mL
% Bias QC-High [2, 15]: −4.7%
% CV QC-High [2, 15]: 3.5%
Difference from Fresh (%) QC-High [2, 15]: −5.5%
Mean concentration QC-High [2, 15]: 76.2 ng/mL
Concentration QC-High [2, 16]: 73.7 ng/mL and 79.0 ng/mL and 76.0 ng/mL
% Bias QC-High [2, 17]: −2.7%
% CV QC-High [2, 17]: 4.4%
Difference from Fresh (%) QC-High [2, 17]: −3.6%
Mean concentration QC-High [2, 17]: 77.8 ng/mL
Concentration QC-High [2, 18]: 80.2 ng/mL and 79.4 ng/mL and 73.9 ng/mL
Long-term stability in untreated human saliva ([2]; at 80° C. (sic)): up to 1 month
Stability in Untreated Human Saliva ([2]; at −20° C.): 1 Month
Stability in Untreated Human Saliva ([2]; at −80° C.): 1 Month
Fresh QCs (Batch 34) Mean at Time Zero, QC-High [2, 19]: 80.7 ng/mL
Fresh QCs (Batch 34) Mean at Time Zero, QC-High [2, 20]: 80.7 ng/mL
SMILES: C[C@H](CCC(=O)NCCS(=O)(=O)O)[C@H]1CC[C@H]2[C@@H]3CC[C@@H]4C[C@H](O)CC[C@]4(C)[C@H]3C[C@H](O)[C@]12C [Taurodeoxycholic Acid, Taurodeoxycholic acid]
Concentration [1, 21]: 78.6 ng/mL and 82.0 ng/mL and 76.9 ng/mL and 78.5 ng/mL
Concentration [1, 22]: 0.539 ng/mL and 0.570 ng/mL and 0.536 ng/mL and 0.560 ng/mL
Concentration [1, 23]: 7.71 ng/mL and 7.90 ng/mL and 7.81 ng/mL and 7.77 ng/mL
Concentration [1, 24]: 73.7 ng/mL and 76.5 ng/mL and 76.2 ng/mL and 79.5 ng/mL
Concentration [1, 25]: 0.596 ng/mL and 0.592 ng/mL and 0.555 ng/mL and 0.601 ng/mL
Concentration [1, 26]: 7.19 ng/mL and 8.02 ng/mL and 8.13 ng/mL and 7.72 ng/mL
